Usually IC50 stands for the concentration at which inhibition is half-maximal. High values mean weaker potency in that assay, low ones greater potency in that assay.

In patent US10689362B2, “Quinoxaline compounds as type III receptor tyrosine kinase inhibitors” (Development Center for Biotechnology, priority 2016, dated 2020) one finds IC50 data, which are given here for 7 compounds.

Type in all cases: biochemical
One assay has as its target c-KIT kinase (Homo sapiens (Human), UniProt P10721). Put plainly: c-KIT kinase assay (radiometric). On the procedure:
(§1) Inhibition of c-KIT kinase activity by a test compound disclosed herein was estimated by radiometric assay. Standard assay conditions were 20 ng of recombinant c-Kit (SignalChem) with 2 μg of substrate Poly-(Glu 4:Tyr 1) (sigma) in the assay buffer in kinase reaction buffer (10 mM MOPS pH 7.0, 0.21 mM EDTA, 0.5% glycerol, 0.001% Brij-35, 0.01 2-mercaptoehtanol, 1 mg/ml BSA, 10 mM MgCl2, 10 mM MnCl2, 10 μM ATP, 0.1 μCi per well [^33P]-ATP, in the presence of test compound (diluted in final concentration of 4% DMSO) or DMSO control, with a final volume of 25 μl for 60 minutes at 30° C. The reaction was stopped by adding 5 μl of 3% phosphoric acid solution. Total reaction solution was then harvested onto a filter plate (UniFilter-96 GF/B, PerkinElmer), and washed 20 times for 5 min with dH2O. 30 μl of MicroScint™-20 Cocktail (PerkinElmer) was added to dried plate. The plate was sealed and counted using a TopCount scintillation detector (PerkinElmer). […] The IC50 values of quinoxaline compounds of this invention against c-KIT kinase were determined using the GraphPad Prism 5 software.
(§2) The IC50 values for selected quinoxaline compounds of this invention against CSF-1R, c-KIT, FLT3, and PDGFRβ are summarized in Table 3.

The target of the next assay is PDGFRβ kinase (Homo sapiens (Human), UniProt P09619). Put plainly: PDGFRβ kinase assay (radiometric). The conditions noted are these: bound. Here is the method: as §1, with “of PDGFRβ” for “of c-KIT”, “were 10” for “were 20”, “recombinant PDGFRβ” for “recombinant c-Kit”, “well [^33P]-ATP),” for “well [^33P]-ATP,”, “against PDGFRβ” for “against c-KIT”
as §2

In another assay the target is FLT3 kinase (Homo sapiens (Human), UniProt P36888). Description: FLT3 kinase assay (radiometric). To be noted: bound. Here is the method: as §1, with “of FLT3” for “of c-KIT”, “were 5” for “were 20”, “recombinant FLT3 (Thermo Fisher)” for “recombinant c-Kit (SignalChem)”, “BSA, MgCl2” for “BSA,”, “10 mM,” for “10 mM MgCl2, 10 mM MnCl2,”, “against FLT3” for “against c-KIT”
as §2

SMILES strings stand for the structures.

c-KIT kinase, sequence (P10721 26-976): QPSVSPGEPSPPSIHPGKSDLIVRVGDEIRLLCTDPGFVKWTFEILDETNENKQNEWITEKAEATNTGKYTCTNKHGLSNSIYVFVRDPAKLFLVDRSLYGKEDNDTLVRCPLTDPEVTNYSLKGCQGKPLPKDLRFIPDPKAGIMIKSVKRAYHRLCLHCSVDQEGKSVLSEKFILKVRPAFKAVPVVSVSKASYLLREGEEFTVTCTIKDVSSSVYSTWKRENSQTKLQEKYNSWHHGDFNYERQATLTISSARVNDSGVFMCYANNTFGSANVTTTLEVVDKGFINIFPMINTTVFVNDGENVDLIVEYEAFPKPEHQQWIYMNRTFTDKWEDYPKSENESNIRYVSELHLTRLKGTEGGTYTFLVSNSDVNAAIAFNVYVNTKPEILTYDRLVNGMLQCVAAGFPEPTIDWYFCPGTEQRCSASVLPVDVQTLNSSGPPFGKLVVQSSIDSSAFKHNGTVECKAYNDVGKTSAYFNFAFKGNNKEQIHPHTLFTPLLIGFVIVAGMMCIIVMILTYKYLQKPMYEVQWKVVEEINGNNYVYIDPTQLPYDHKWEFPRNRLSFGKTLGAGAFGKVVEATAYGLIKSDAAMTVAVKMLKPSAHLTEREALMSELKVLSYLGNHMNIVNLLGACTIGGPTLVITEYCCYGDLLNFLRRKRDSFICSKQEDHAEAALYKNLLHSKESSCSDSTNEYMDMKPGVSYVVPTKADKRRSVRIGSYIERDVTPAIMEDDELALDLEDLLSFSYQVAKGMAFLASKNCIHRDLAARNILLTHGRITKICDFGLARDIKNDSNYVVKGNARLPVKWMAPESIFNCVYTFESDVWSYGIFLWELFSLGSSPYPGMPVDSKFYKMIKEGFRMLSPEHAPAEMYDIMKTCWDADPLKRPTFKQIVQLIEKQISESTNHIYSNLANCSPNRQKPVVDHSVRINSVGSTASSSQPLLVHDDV
FLT3 kinase, sequence (P36888 27-993): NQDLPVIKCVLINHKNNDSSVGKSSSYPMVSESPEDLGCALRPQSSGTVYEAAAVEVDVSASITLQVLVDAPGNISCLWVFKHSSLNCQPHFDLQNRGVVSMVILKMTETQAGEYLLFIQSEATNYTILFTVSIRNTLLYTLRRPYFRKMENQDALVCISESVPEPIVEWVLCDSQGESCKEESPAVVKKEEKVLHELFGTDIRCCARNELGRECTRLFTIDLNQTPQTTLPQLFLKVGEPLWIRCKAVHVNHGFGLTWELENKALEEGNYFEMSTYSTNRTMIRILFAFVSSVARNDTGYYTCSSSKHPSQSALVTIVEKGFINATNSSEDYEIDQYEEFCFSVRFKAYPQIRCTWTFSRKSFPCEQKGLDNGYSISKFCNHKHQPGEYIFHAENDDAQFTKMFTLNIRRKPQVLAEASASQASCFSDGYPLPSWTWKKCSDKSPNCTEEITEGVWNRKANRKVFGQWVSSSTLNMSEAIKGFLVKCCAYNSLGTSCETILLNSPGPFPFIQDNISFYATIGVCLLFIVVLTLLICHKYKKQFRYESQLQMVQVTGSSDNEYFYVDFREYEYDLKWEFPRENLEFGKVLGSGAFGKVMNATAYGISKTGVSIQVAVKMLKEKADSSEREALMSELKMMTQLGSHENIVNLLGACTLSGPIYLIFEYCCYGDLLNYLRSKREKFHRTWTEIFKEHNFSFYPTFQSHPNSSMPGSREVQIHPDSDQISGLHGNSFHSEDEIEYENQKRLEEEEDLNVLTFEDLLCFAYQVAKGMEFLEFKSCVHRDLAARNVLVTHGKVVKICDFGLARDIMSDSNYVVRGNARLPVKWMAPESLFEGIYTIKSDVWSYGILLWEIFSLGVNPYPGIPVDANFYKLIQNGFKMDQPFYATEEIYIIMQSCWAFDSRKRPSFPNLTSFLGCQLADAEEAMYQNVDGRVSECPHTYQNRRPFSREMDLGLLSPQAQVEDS
PDGFRβ kinase, sequence (P09619 33-1106): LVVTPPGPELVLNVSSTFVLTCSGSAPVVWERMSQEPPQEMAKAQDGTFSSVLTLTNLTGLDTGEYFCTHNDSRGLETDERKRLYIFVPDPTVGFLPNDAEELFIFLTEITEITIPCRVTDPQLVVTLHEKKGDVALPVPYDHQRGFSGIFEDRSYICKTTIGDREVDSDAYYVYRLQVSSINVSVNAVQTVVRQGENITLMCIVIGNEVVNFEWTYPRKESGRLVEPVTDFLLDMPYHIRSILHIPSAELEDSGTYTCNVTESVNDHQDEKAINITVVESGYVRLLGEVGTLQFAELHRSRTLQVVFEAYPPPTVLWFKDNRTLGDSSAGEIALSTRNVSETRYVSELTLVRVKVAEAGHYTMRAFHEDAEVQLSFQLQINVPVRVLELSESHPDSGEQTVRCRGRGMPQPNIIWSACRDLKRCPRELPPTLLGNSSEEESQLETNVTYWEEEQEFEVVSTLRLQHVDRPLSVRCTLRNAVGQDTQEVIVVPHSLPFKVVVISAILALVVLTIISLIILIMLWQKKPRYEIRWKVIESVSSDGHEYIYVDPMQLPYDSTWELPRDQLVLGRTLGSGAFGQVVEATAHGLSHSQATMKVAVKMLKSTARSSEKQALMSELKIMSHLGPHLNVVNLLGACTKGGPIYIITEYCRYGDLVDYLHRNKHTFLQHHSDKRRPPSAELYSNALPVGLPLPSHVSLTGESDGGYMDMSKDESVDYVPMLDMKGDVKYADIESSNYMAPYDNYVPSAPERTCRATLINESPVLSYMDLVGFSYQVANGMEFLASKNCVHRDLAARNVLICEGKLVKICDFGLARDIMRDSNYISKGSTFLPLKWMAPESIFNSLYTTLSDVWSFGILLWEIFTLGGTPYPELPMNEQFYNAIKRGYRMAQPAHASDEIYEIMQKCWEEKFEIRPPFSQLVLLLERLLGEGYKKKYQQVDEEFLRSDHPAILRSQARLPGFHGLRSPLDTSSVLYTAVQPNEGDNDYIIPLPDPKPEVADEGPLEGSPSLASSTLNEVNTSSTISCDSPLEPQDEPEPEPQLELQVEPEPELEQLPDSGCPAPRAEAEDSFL

Take `COc1cc(Nc2ccc3ncc(N4CCOCC4)nc3c2C#N)ccc1OCc1cnn(C2CC2)c1` [Example 134, 6-((4-((1-cyclopropyl-1H-pyrazol-4-yl)methoxy)-3-methoxy-phenyl)amino)-3-morpholinoquinoxaline-5-carbonitrile]: the figures for the IC50 on c-KIT kinase (class symbol), at PDGFRβ kinase and against FLT3 kinase were under 0.1 µM, over 1 µM and over 1 µM, respectively.
Turning to `COc1cc(Nc2ccc3ncc(N4CCOCC4)nc3c2C#N)ccc1OCc1cccnc1` [Example 43, 6-((3-methoxy-4-(pyridin-3-ylmethoxy)phenyl)amino)-3-morpholinoquinoxaline-5-carbonitrile], the IC50 at c-KIT kinase (class symbol) was under 0.1 µM; on PDGFRβ kinase it was over 1 µM; against FLT3 kinase, over 1 µM.
Regarding `CCOc1cc(Oc2ccc3ncc(OC)nc3c2C#N)ccc1OCc1ccc(OC)cc1` [Example 30, 6-(3-ethoxy-4-((4-methoxybenzyl)oxy)phenoxy)-3-methoxyquinoxaline-5-carbonitrile], the IC50 against c-KIT kinase (bound), against PDGFRβ kinase and on FLT3 kinase was over 1 µM each time.
`COc1cc(Nc2ccc3ncc(N4CCOCC4)nc3c2C#N)ccc1OCc1cnc(C)nc1` [Example 128, 6-((3-methoxy-4-((2-methylpyrimidin-5-yl)methoxy)phenyl)amino)-3-morpholinoquinoxaline-5-carbonitrile]: the IC50 against c-KIT kinase (class symbol) is 0.3 to 1 µM; against PDGFRβ kinase, over 1 µM; on FLT3 kinase, over 1 µM.
As for `COc1ccc(COc2ccc(Oc3ccc4ncc(OC)nc4c3C#N)cc2OC)cc1` [Example 10, 3-methoxy-6-(3-methoxy-4-((4-methoxpenzyl)oxy)phenoxy)quinoxaline-5-carbonitrile], the IC50 against PDGFRβ kinase was over 1 µM.
`COc1ccc(COc2ccc(Oc3ccc4ncc(OC)nc4c3C#N)cc2OC)cc1` [Example 26, 3-methoxy-6-(3-methoxy-4-((4-methoxybenzyl)oxy)phenoxy)quinoxaline-5-carbonitrile]: the IC50 against c-KIT kinase (bound), against PDGFRβ kinase and against FLT3 kinase was over 1 µM throughout.
As to `COc1cc(Nc2ccc3ncc(N4CCOCC4)nc3c2C#N)ccc1OCc1ccc(C)nc1` [Example 54, 6-((3-methoxy-4-((6-methylpyridin-3-yl)methoxy)phenyl)amino)-3-morpholinoquinoxaline-5-carbonitrile], the IC50 against c-KIT kinase (class symbol) is under 0.1 µM; on PDGFRβ kinase it was over 1 µM; against FLT3 kinase, over 1 µM.
